Target: T1, Glu-plg (Homo sapiens, UniProt P00747)
T1 construct: 0.1 mM VLK-pNA, 50 nM Glu-plg and 50 U/ml u-PA
Test: Plasminogen (plg) activation enhancing activity by urokinase catalysis, VLK-pNA chromogenic assay (Example 30, Table 24)
Assay type: biochemical
Details: for Maximum enhancing activity: Concentration by mole / Maximum enhancing activity: Concentration by weight: concentration at which enhancement of plasminogen activation reaches the maximum; for 10-Fold enhancing activity: Concentration by mole / 10-Fold enhancing activity: Concentration by weight: concentration giving 10-fold enhancement of plasminogen activation vs control without SMTP compound (=1); for 10-Fold enhancing activity: Concentration by mole / 10-Fold enhancing activity: Concentration by weight / plasminogen activation enhancing activity compared to orniplabin: 0.1 mM VLK-pNA, 50 nM Glu-plg, 50 U/ml u-PA, 37° C.; for Maximum enhancing activity: Multiplication factor: fold enhancement of plasminogen activation at maximum, control without SMTP compound = 1
Description: For the various triprenyl phenol compounds obtained as described above, the performance was evaluated with regard to the thrombolytic activity as the activity of promoting the plasminogen (plg) activation by urokinase catalysis.
The property of plasmin of cutting the peptide bond of a synthetic chromogenic substrate VLK-pNA (Val-Leu-Lys-p-nitroanilide) to generate p-nitroaniline (pNA), was used to measure the yellow coloration of pNA which is absorbed at 405 nm, and thereby the plasminogen activation enhancing activity of a sample is measured. An MTP-500 type microplate reader (Corona Electric Co., Ltd.) was employed as the measuring device, and measurement was performed with a 96-well round bottom microplate.
The measurement was performed under the conditions of kinetic measurement at 37° C. with dual wavelength of 405 nm (activity) to 595 nm (background), for 60 times in every minute.
The purified samples were each made into a DMSO solution or an aqueous solution of sodium salt. This solution was diluted with TBS/T (50 mM Tris-HCl, 100 mM NaCl and 0.01% Tween80, pH 7.4) to provide a sample for measurement.
Furthermore, as a blank, a reaction was performed using a reaction liquid not containing u-PA, and the value obtained therefrom was subtracted from the values obtained from the reactions described above. The absorbance was plotted against the square of time, and the slope was defined as the initial rate of reaction. A reaction solution not added with any triprenyl phenol compound was taken as the control and was compared with the samples, to determine the degree of activity of the respective compounds.
The term “concentration of 10-fold enhancing activity” indicates the concentration at which 10-fold enhancing activity is obtained in the case where the value obtained by using a reaction solution not containing any SMTP compound (control) is taken as 1. The term “maximum enhancing activity” indicates the concentration at which the enhancement of plasminogen activation by an SMTP compound reaches the maximum.

T1 sequence (P00747 20-810 limits assumed): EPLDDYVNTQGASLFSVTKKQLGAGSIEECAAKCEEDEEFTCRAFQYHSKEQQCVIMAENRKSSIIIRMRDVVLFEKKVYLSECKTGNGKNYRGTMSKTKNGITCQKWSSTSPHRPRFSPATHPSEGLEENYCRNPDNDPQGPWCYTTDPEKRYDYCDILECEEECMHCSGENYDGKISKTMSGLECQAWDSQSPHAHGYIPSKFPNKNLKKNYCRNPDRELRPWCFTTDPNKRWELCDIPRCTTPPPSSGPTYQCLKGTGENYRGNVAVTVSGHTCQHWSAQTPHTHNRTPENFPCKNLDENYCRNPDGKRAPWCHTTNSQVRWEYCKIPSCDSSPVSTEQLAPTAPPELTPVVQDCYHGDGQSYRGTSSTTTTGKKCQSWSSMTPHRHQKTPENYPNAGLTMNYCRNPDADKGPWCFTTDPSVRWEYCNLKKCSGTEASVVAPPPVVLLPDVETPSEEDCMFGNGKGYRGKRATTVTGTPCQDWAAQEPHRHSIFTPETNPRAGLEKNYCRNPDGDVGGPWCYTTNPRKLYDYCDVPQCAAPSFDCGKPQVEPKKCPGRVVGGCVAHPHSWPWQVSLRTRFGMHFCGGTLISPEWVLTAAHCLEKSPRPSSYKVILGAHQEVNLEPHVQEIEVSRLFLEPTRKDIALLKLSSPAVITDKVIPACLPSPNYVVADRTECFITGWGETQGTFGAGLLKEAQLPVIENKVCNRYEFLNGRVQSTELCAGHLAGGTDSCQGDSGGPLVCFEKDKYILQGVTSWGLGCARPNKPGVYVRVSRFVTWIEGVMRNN

Row | Structure (SMILES) | Maximum enhancing activity: Concentration by mole [µM] | Maximum enhancing activity: Concentration by weight [µg/mL] | 10-Fold enhancing activity: Concentration by mole [μM] | 10-Fold enhancing activity: Concentration by weight [μg/ml] | Maximum enhancing activity: Multiplication factor | plasminogen activation enhancing activity compared to orniplabin
1 | CC(C)=CCC/C(C)=C/CC[C@]1(C)Oc2c(c(O)cc3c2CN(c2ccc(C(=O)O)cc2)C3=O)C[C@@H]1O [Compound I-2] | 160 | 81 | 83 | 42 | 126 | equivalent or higher
2 | CC(C)=CCC/C(C)=C/CC[C@]1(C)Oc2c(c(O)cc3c2CN(c2cccc(C(=O)O)c2)C3=O)C[C@@H]1O [Compound I-3] | 300 | 151 | 202 | 102 | 52 | 
3 | CC(C)=CCC/C(C)=C/CC[C@]1(C)Oc2c(c(O)cc3c2CN(c2ccccc2C(=O)O)C3=O)C[C@@H]1O [Compound I-4] | 200 | 101 | 133 | 67 | 51 | 
4 | CC(C)=CCC/C(C)=C/CC[C@]1(C)Oc2c(c(O)cc3c2CN(c2ccc(C(=O)O)c(O)c2)C3=O)C[C@@H]1O [Compound I-5] | 200 | 101 | 100 | 52 | 158 | equivalent or higher
5 | CC(C)=CCC/C(C)=C/CC[C@]1(C)Oc2c(c(O)cc3c2CN(c2ccc(C(=O)O)cc2O)C3=O)C[C@@H]1O [Compound I-6] | 290 | 151 | 131 | 68 | 65 | 
6 | CC(C)=CCC/C(C)=C/CC[C@]1(C)Oc2c(c(O)cc3c2CN(c2c(O)cccc2C(=O)O)C3=O)C[C@@H]1O [Compound I-7] | 290 | 151 | 173 | 90 | 37 | 
7 | CC(C)=CCC/C(C)=C/CC[C@]1(C)Oc2c(c(O)cc3c2CN(c2cccc(C(=O)O)c2O)C3=O)C[C@@H]1O [Compound I-8] | 100 | 52 | 71 | 37 | 91 | equivalent or higher
8 | CC(C)=CCC/C(C)=C/CC[C@]1(C)Oc2c(c(O)cc3c2CN(c2ccc(O)c(C(=O)O)c2)C3=O)C[C@@H]1O [Compound I-9] | 120 | 63 |  |  | 8 | 
9 | CC(C)=CCC/C(C)=C/CC[C@]1(C)Oc2c(c(O)cc3c2CN(c2cc(C(=O)O)ccc2O)C3=O)C[C@@H]1O [Compound I-10] | 290 | 151 | 188 | 98 | 43 | 
10 | CC(C)=CCC/C(C)=C/CC[C@]1(C)Oc2c(c(O)cc3c2CN(c2ccc(O)cc2C(=O)O)C3=O)C[C@@H]1O [Compound I-11] | 200 | 101 | 127 | 66 | 65 | 
11 | CC(C)=CCC/C(C)=C/CC[C@]1(C)Oc2c(c(O)cc3c2CN(c2ccc(S(=O)(=O)O)cc2)C3=O)C[C@@H]1O [Compound I-19] | 300 | 163 | 137 | 74 | 60 | 

Results, then the compound that gave them:

Row | Maximum enhancing activity: Concentration by mole [µM] | Maximum enhancing activity: Concentration by weight [µg/mL] | 10-Fold enhancing activity: Concentration by mole [μM] | 10-Fold enhancing activity: Concentration by weight [μg/ml] | Maximum enhancing activity: Multiplication factor | plasminogen activation enhancing activity compared to orniplabin | Structure (SMILES)
12 | 402 | 215 | 230 | 123 | 29 |  | CC(C)=CCC/C(C)=C/CC[C@]1(C)Oc2c(c(O)cc3c2CN([C@H](C(=O)O)c2cccc(O)c2)C3=O)C[C@@H]1O (racemic) [Compound I-25]
13 | 289 | 150 | 89 | 46 | 402 | equivalent or higher | CC(C)=CCC/C(C)=C/CC[C@]1(C)Oc2c(c(O)cc3c2CN([C@H](C(=O)O)c2ccccc2)C3=O)C[C@@H]1O [Compound I-20]
14 | 289 | 150 | 104 | 54 | 44 |  | CC(C)=CCC/C(C)=C/CC[C@]1(C)Oc2c(c(O)cc3c2CN([C@@H](C(=O)O)c2ccccc2)C3=O)C[C@@H]1O [Compound I-21]
15 | 299 | 160 | 211 | 113 | 18 |  | CC(C)=CCC/C(C)=C/CC[C@]1(C)Oc2c(c(O)cc3c2CN([C@H](C(=O)O)c2ccc(O)cc2)C3=O)C[C@@H]1O [Compound I-22]
16 | 402 | 215 | 331 | 177 | 22 |  | CC(C)=CCC/C(C)=C/CC[C@]1(C)Oc2c(c(O)cc3c2CN([C@@H](C(=O)O)c2ccc(O)cc2)C3=O)C[C@@H]1O [Compound I-23]
17 | 200 | 110 | 77 | 42 | 76 | equivalent or higher | CC(C)=CCC/C(C)=C/CC[C@]1(C)Oc2c(c(O)cc3c2CN([C@@H](Cc2ccc(O)cc2)C(=O)O)C3=O)C[C@H]1O [Compound I-26]
18 | 90 | 78 | 65 | 56 | 100 |  | CC(C)=CCC/C(C)=C/CC[C@]1(C)Oc2c(c(O)cc3c2CN(CCC[C@@H](C(=O)O)N2Cc4c(cc(O)c5c4O[C@@](C)(CC/C=C(\C)CCC=C(C)C)[C@@H](O)C5)C2=O)C3=O)C[C@@H]1O [Orniplabin, reference compound]
